Values joined by “and” are separate entries in the source; they are usually repeats but may differ in a detail not shown here. Identical values can stand only once. Counter-ions that a name gives are not always drawn. Like-named read-outs stand apart in the source and are kept apart here.
Key:
[1] = test system: ethanologen yeast PNY 827; assay: microbe, parasite or virus in culture; assay type: cell-based, Saccharomyces cerevisiae; settings: for Ki: read-out: KI (inhibitory constant on growth)
[2] = test system: S. cerevisiae yeast strains PNY0860-1A, PNY827 and CEN.PK 113-7D; assay: Filter-disk growth inhibition assay with AHAS inhibitors on top agar plates; assay type: cell-based; settings: filter disks containing 20 μg or 10 μg AHAS inhibitor; 72 hours at 30° C.
[3] = test system: mixed cultures of ethanologen S. cerevisiae PNY 827 and the butanologen yeast S. cerevisiae PNY 2129; assay type: cell-based
[4] = test system: NYLA84 ILV2-410::loxP71/66 with pLH468 and pLH475-JEA1; assay type: cell-based, S. cerevisiae; settings: 0 μg/ml to 50 μg/ml sulfometuron methyl; strains expressing cytosolic acetolactate synthase
[5] = fit to squared inhibition kinetics
[6] = Saccharomyces cerevisiae, PNY827, read-out: IC50 on growth (inhibitor concentration with 50% μ°max)
[7] = fit to hybrid inhibition kinetics model

## Cc1cn[nH]c1.Cl [4-methylpyrazole hydrochloride]
[1]
  μ°max (fitted maximum specific growth rate without inhibitor): 0.58 L/h
[1]; [5]
  Ki: 41 mM
[1]; hydrochloride
  inhibitor-based mumax (corrected for effect of DMSO): 0.48 L/h and 0.38 L/h
  observed μmax: 0.48 L/h and 0.24 L/h

## O=C(O)c1cn[nH]c1 [4-pyrazolecarboxylic acid]
[1]
  inhibitor-based mumax (corrected for effect of DMSO): 0.59 L/h and 0.50 L/h
  μ°max (fitted maximum specific growth rate without inhibitor): 0.60 L/h
[1]; [5]
  Ki: 100 mM

## COc1cc(OC)nc(NC(=O)NS(=O)(=O)c2ncccc2C(=O)N(C)C)n1 [Accent, nicosulfuron methyl]
[2]
  zones of growth inhibition (inhibition of yeast growth): did not inhibit

## COC(=O)c1ccccc1S(=O)(=O)NC(=O)Nc1nc(C)nc(OC)n1 [Ally, metsulfuron methyl]
[2]
  zones of growth inhibition (inhibition of yeast growth): inhibit growth

## CCOC(=O)c1ccccc1S(=O)(=O)NC(=O)Nc1nc(Cl)cc(OC)n1 [Classic, chlorimuron ethyl]
[2]
  zones of growth inhibition (inhibition of yeast growth): inhibit growth

## C[S+](C)[O-] [DMSO]
[1]
  μmax (maximum specific growth rate): 0.56 L/h
  Ki: ~16 mM

## COC(=O)c1sccc1S(=O)(=O)NC(=O)Nc1nc(C)nc(OC)n1 [Harmony, thifensulfuron methyl]
[2]
  zones of growth inhibition (inhibition of yeast growth): did not inhibit

## O=C/C=C/c1ccccc1 [cinnamaldehyde, trans-cinnamaldehyde]
[1]
  inhibitor-based mumax (corrected for effect of DMSO): 0.64 L/h and 0.63 L/h and 0.55 L/h
  observed μmax: 0.64 L/h and 0.63 L/h and 0.55 L/h
  μ°max (fitted maximum specific growth rate without inhibitor): 0.62 L/h
[1]; [6]
  IC50: 0.25 mM
[1]; [5]
  Ki: 0.25 mM
[1]; non-DMSO experiments: 200 mM, 100 mM, 50 mM, 25 mM, 10 mM, 1 mM
  cell growth: in none of the non-DMSO experiments any cell growth was observed
[3]
  DHIV + DHMB: 0.0 mM
[3]; 250 μM, inoculum ratios 1:1 and 1:11, EPT=8 h and EPT=48 h
  ratio of butanol vs. ethanol produced compared with no addition: lower
[3]; 25 mM, both mixed cultures (1:1 and 1:11), EPT=8 h and EPT=48 h
  growth of mixed cultures: No growth

## C=O [formaldehyde]
[1]
  μ°max (fitted maximum specific growth rate without inhibitor): 0.59 L/h
[1]; [6]
  IC50: 0.9 mM

## O=CC(=O)O [glyoxylic acid, glyoxylic acid sodium salt monohydrate]
[1]
  μ°max (fitted maximum specific growth rate without inhibitor): 0.60 L/h
[1]; sodium salt monohydrate
  μmax (maximum specific growth rate): 0.59 L/h and 0.55 L/h

## c1cn[nH]c1 [pyrazole]
[1]
  overall observable μ°max: 0.60 L/h
  μ°max 1: 0.52 L/h
  μ°max 2: 0.08 L/h
[1]; [6]
  IC50: 3.3 mM
[1]; [7]
  Ki: 2.8 mM
[3]
  DHIV + DHMB: 0.0 mM
[3]; 3 mM and 30 mM, inoculum ratios 1:1 and 1:11, EPT=8 h
  butanol-to-ethanol ratio compared with no inhibitor: dramatically increased
[3]; 30 mM, both inoculum ratios, EPT=48 h
  butanol:ethanol ratio compared with no inhibitor: significantly increased

## O=S([O-])[O-].[Na+].[Na+] [sulfite, sodium sulfite]
[1]
  OD600corr [ ]: 0.081 and 0.087 and 0.088 and 0.092
[1]; 1 mM (F8-su-1), time 1.00 h
  OD600corr [ ]: 0.082
[1]; 1 mM (F8-su-1), time 2.25 h
  OD600corr [ ]: 0.121
[1]; 1 mM (F8-su-1), time 3.25 h
  OD600corr [ ]: 0.185
[1]; 1 mM (F8-su-1), time 4.25 h
  OD600corr [ ]: 0.307
[1]; 1 mM (F8-su-1), time 6.00 h
  OD600corr [ ]: 1.102
[1]; 1 mM (F8-su-1), time 23.67 h
  OD600corr [ ]: 11.157
[1]; 1 mM inhibitor
  μmax (maximum specific growth rate): 0.59 L/h
[1]; 2 mM (F9-su-2), time 1.00 h
  OD600corr [ ]: 0.086
[1]; 2 mM (F9-su-2), time 2.25 h
  OD600corr [ ]: 0.120
[1]; 2 mM (F9-su-2), time 3.25 h
  OD600corr [ ]: 0.173
[1]; 2 mM (F9-su-2), time 4.25 h
  OD600corr [ ]: 0.265
[1]; 2 mM (F9-su-2), time 6.00 h
  OD600corr [ ]: 0.887
[1]; 2 mM (F9-su-2), time 23.67 h
  OD600corr [ ]: 12.217
[1]; 2 mM inhibitor
  μmax (maximum specific growth rate): 0.54 L/h
[1]; 5 mM (F10-su-3), time 1.00 h
  OD600corr [ ]: 0.090
[1]; 5 mM (F10-su-3), time 2.25 h
  OD600corr [ ]: 0.116
[1]; 5 mM (F10-su-3), time 3.25 h
  OD600corr [ ]: 0.153
[1]; 5 mM (F10-su-3), time 4.25 h
  OD600corr [ ]: 0.208
[1]; 5 mM (F10-su-3), time 6.00 h
  OD600corr [ ]: 0.392
[1]; 5 mM (F10-su-3), time 9.58 h
  OD600corr [ ]: 2.572
[1]; 5 mM (F10-su-3), time 23.67 h
  OD600corr [ ]: 11.717
[1]; 5 mM inhibitor
  μmax (maximum specific growth rate): 0.33 L/h
[1]; 10 mM (F11-su-4), time 1.00 h
  OD600corr [ ]: 0.085
[1]; 10 mM (F11-su-4), time 2.25 h
  OD600corr [ ]: 0.111
[1]; 10 mM (F11-su-4), time 3.25 h
  OD600corr [ ]: 0.140
[1]; 10 mM (F11-su-4), time 4.25 h
  OD600corr [ ]: 0.175
[1]; 10 mM (F11-su-4), time 6.00 h
  OD600corr [ ]: 0.268
[1]; 10 mM (F11-su-4), time 9.58 h
  OD600corr [ ]: 1.102
[1]; 10 mM (F11-su-4), time 23.67 h
  OD600corr [ ]: 11.437
[1]; 10 mM inhibitor
  μmax (maximum specific growth rate): 0.23 L/h
[1]; 20 mM (F3-su-1), time 1.50 h
  OD600corr [ ]: 0.099
[1]; 20 mM (F3-su-1), time 2.67 h
  OD600corr [ ]: 0.115
[1]; 20 mM (F3-su-1), time 4.00 h
  OD600corr [ ]: 0.150
[1]; 20 mM (F3-su-1), time 5.33 h
  OD600corr [ ]: 0.182
[1]; 20 mM (F3-su-1), time 6.75 h
  OD600corr [ ]: 0.226
[1]; 20 mM (F3-su-1), time 9.42 h
  OD600corr [ ]: 0.396
[1]; 20 mM (F3-su-1), time 23.25 h
  OD600corr [ ]: 9.697
[1]; 20 mM inhibitor
  μmax (maximum specific growth rate): 0.18 L/h
[1]; 50 mM (F4-su-2), time 1.50 h
  OD600corr [ ]: 0.095
[1]; 50 mM (F4-su-2), time 2.67 h
  OD600corr [ ]: 0.116
[1]; 50 mM (F4-su-2), time 4.00 h
  OD600corr [ ]: 0.135
[1]; 50 mM (F4-su-2), time 5.33 h
  OD600corr [ ]: 0.161
[1]; 50 mM (F4-su-2), time 6.75 h
  OD600corr [ ]: 0.192
[1]; 50 mM (F4-su-2), time 9.42 h
  OD600corr [ ]: 0.295
[1]; 50 mM (F4-su-2), time 23.25 h
  OD600corr [ ]: 10.717
[1]; 50 mM inhibitor
  μmax (maximum specific growth rate): 0.14 L/h
[1]; [7]
  μ°max 1: 0.46 L/h
  μ°max 2: 0.15 L/h
  Ki: 4.4 mM
[1]; predicted by hybrid inhibition kinetics model
  overall observable μ°max: 0.61 L/h
[1]; read-out: IC50 on growth (inhibitor concentration with 50% μ°max), derived from inhibition kinetics and fitted parameters
  IC50: 6.2 mM

## COC(=O)c1ccccc1S(=O)(=O)NC(=O)Nc1nc(C)cc(C)n1 [sulfometuron methyl]
[4]
  resistance (growth scored after overnight incubation): higher resistance
[1]
  overall observable μ°max: 0.59 L/h
  μmax (maximum specific growth rate): 0.04 L/h and 0.05 L/h
  μ°max 1: 0.55 L/h
  μ°max 2: 0.04 L/h
[1]; [6]
  IC50: < 0.1 mM
[1]; [7]
  Ki: < 0.1 mM
[2]
  zones of growth inhibition (inhibition of yeast growth): inhibit growth

— patent US9771602B2 (priority 2013, dated 2017)
